Measured values from patent publication US6083920A, “Compositions for modulating intracellular inositol trisphosphate concentration” (priority 1996, dated 2000).

How the values were obtained:
[1] = tested on: calcium ion signalling in cortical neurons; assay: Metabotropic receptor function: calcium ion signalling (fura 2) in intact cortical neurons; type: cell-based, chick; conditions: 10 μM agonist, 30 minutes at 37° C., fura 2 fluorescence ratio
Method: Metabotropic receptor function was examined in intact neurons by assaying lysosphingolipid modulation of calcium ion signalling. Approximately 1×10^6 cortical neurons were cultured on rectangular L-polylysine-coated coverslips and loaded with lysocerebroside or lysosphingomyelin to a level of 150±20 pmoles per mg protein. The neurons were returned to complete Ham's high glucose medium/DMEM (1:1, vol:vol) and infiltrated with 5 μM fura 2/AM (Molecular Probes, Eugene, Oreg.). Fura 2 is a calcium chelator whose fluorescence absorbance shifts to shorter wavelength upon calcium ion binding is measurable in intact cells. A change in intraneuronal calcium ion concentration was monitored as a change in the fluorescence spectrum.
The neurons were exposed to 10 μM glutamate agonist (for example, ibotenate) for 30 minutes at 37° C. The coverslips were then transferred to quartz cuvettes in medium containing 250 μM sulfinpyrazone to prevent fura 2/AM diffusion. Fluorescence ratios were recorded in a Perkin-Elmer LS-5 Fluorescence Spectrometer thermostatted at 37° C. at excitation wavelengths of 340 and 380 nm, a nd emission measurement at 500 nm. Calcium ion signalling in agonist-stimulated neurons was 3.0±0.2 arbitrary units for ibotenate-exposed neurons.

[2] = tested on: InsP3 signalling in primary chick cortical neurons; assay: Phosphoinositide hydrolysis assay (InsP3 signalling) in cultured primary cortical neurons; type: cell-based; conditions: for Ins-P-n, modulator Lsm:Sph: 20 μM Lysosphingomyelin + 20 μM Sphingosine; for Ins-P-n, modulator Psy:Sph: 20 μM Psychosine + 20 μM Sphingosine; for fold induction at 100 µM: Gallus gallus, Cortical neurone, 20 min, read-out: Ins-P-n (agonist alone); for physiological effect in this system: amino group amidated, non-ionic
Method: Primary cultures of neurons were prepared from the telencephalon of white Leghorn chick embryos on the eighth day of their development (Rosenberg et al., J.Biol. Chem. 267:10601-10612, 1992). The neurons were seeded in 24-well plastic tissue culture plates that had been coated with L-polylysine. The density of the neurons was 10^5 cells per well, and they were cultured in Dulbecco's modified Eagle's medium/Ham's high glucose F-12 medium (1:1, vol:vol) containing 500 ng/L sodium selenite, 500 μg/L transferrin, and 165 pmole/L EGF. The cultures were maintained at 37° C. under 5% CO2 in air for 4 days, by which time the cells had differentiated into neurite-bearing cortical granulocytic neurons. These cultures of mature embryonic neurons were used for phosphoinositide hydrolysis assays (as described in Example 2).
Receptor-stimulated and basal unstimulated hydrolysis of phosphoinositides was measured by the following procedure. In order to label the cellular phosphoinositides metabolically, the primary cultures of chick cortical neurons (described in Example 1) were incubated overnight with 0.5 ml Dulbecco's modified Eagle's medium containing 1 μCi [^3 H]myo-inositol per well. The cells were then washed twice with 1 ml Dulbecco's phosphate-buffered saline (PBS) and 0.5 ml of PBS containing 4.5 g/L glucose was added. Sphingosine, psychosine, lysosulphatide, or lysosphingomyelin, prepared as the hydrochloride salt dissolved in water, were then added to produce the desired extracellular concentration in specific wells, […] The cells were then washed twice with 1 ml PBS, and pre-incubated for 15 minutes at 37° C. with 0.5 ml PBS containing 10 mM LiCl and the compound to be tested was added. […] The tubes were vortexed thoroughly, then centrifuged at 500×g for 5 minutes to separate the aqueous and chloroform phases. For each sample, a 1.5-ml aliquot of the upper (aqueous) phase was applied to a small column containing BioRad AG1X8 resin (formate form). Free [^3 H]inositol and [^3 H]glycerophosphoinositol were washed through the column with 5 ml of a solution containing 5 mM sodium borate and 60 mM sodium formate. The total phosphorylated [^3 H] inositol fraction was eluted from the column for radiometric scintillation spectrometry analysis with 3 ml 1.0 M ammonium formate/0.1 M formic acid;
In addition, a 0.5 ml aliquot of the lower (chloroform) phase of each sample was analyzed radiometrically by scintillation spectrometry in order to determine the quantity of lipid-bound [^3 H]myo-inositol. Estimation of phosphoinositide hydrolysis by phospholipase C is based upon the quantity of [^3 H]inositol phosphates produced, and is expressed as the percentage of the latter relative to total free and componential [^3 H]inositol (dpm ammonium formate+dpm chloroform fractions).
Cultured primary chick cortical neurons that were prelabeled with [^3 H]myo-inositol were examined for enhanced InsP3 signalling in response to various agonists including glutamate, aspartate, and the metabotropic […] receptor agonists ibotenate and quisqualate.

[3] = Membrane insertion potential
rat C6 glioma cells = conditions: cited from earlier work
[4] = then 100 μM agonist 20 min, normalized to control = 1.00

NC(C(=O)O)c1cc(O)no1 (stereo not drawn) [Ibotenate, ibotenate]
calcium ion signalling in agonist-stimulated neurons [1]: 3.0±0.2 arbitrary units | Ins-P-n, modulator Lsm:Sph [2, 4]: 2.10 ± 0.10 | Ins-P-n, modulator Psy:Sph [2, 4]: 3.10 ± 0.35 | fold induction at 100 µM [2]: 3 ± 0.1

N[C@@H](CCC(=O)O)C(=O)O [Glutamate, glutamate]
Ins-P-n, modulator Lsm:Sph [2, 4]: 3.00 ± 0.10 | Ins-P-n, modulator Psy:Sph [2, 4]: 3.00 ± 0.35 | fold induction at 100 µM [2]: 3.3 ± 0.05

CCCCCCCCCCCCCCC[C@@H](O)[C@@H](N)CO [sphinganine]
membrane insertion potential relative to sphingosine [3]: less than one third the membrane insertion potential of sphingosine

ceramide
physiological effect in this system [2]: little or no physiological effect

N[C@@H](CC(=O)O)C(=O)O [Aspartate, aspartate]
Ins-P-n, modulator Lsm:Sph [2, 4]: 2.00 ± 0.05 | Ins-P-n, modulator Psy:Sph [2, 4]: 2.65 ± 0.50 | fold induction at 100 µM [2]: 2.7 ± 0.06 | Ins-P-n, modulator Lsm ([2]; neurons preincubated with 20 μM Lysosphingomyelin 30 min, washed, then 100 μM agonist 20 min, normalized to control = 1.00): 1.00 ± 0.06 | Ins-P-n, modulator Psy ([2]; neurons preincubated with 20 μM Psychosine 30 min, washed, then 100 μM agonist 20 min, normalized to control = 1.00): 1.00 ± 0.06

CN(C)CCCN1c2ccccc2Sc2ccc(Cl)cc21 [chlorpromazine, 10-(3-dimethylaminopropyl)-2-chlorphenothiazine]
level of InsP3 (rat C6 glioma cells): raises the level of InsP3

CN[C@@H]1C[C@H]2O[C@@](C)([C@@H]1OC)n1c3ccccc3c3c4c(c5c6ccccc6n2c5c31)C(=O)NC4 [staurosporine]
influence on the effects of sphingosine, lysocerebroside, or lysosphingomyelin on InsP3 production ([2]; brain neurons responsive to excitatory amino acids): does not influence

CCCCCCCCCCCCC/C=C/[C@@H](O)[C@H](CO)NC(C)=O [N-acetyl sphingosine]
physiological effect in this system [2]: little or no physiological effect

CCCCCCCCCCCCC/C=C/[C@@H](O)[C@@H](N)CO[C@@H]1O[C@H](CO)[C@H](O)[C@H](OS(=O)(=O)O)[C@H]1O [Lysosulphatide]
inhibitory effect on InsP3 enhancement caused by sphingosine or metabotropic glutamate receptor agonists ([2]; cortical neurons): without inhibitory effect
